Consider 2 substances from patent US11198869B2, “Angelman syndrome antisense treatment” (The Texas A&M University System, priority 2017, dated 2021).

The test system of one series is IPW. The series is described as follows: RNA-sequencing of Angelman syndrome iPSC neurons: IPW. It counts as cell-based, human. As to conditions: 30 μM, RNA-seq; for Difference, IPW RNA level relative to vehicle: six days post-treatment. How it is done: (§1) RNA was isolated using Qiagen RNAeasy Plus (74136, Qiagen, Hilden, Germany). RNA concentration was determined using Qubit Fluorometric Quantitation (Thermo Fisher Scientific) and RNA quality was assessed using a 4200 Agilent TapeStation (Agilent, Santa Clara, Calif.). RNA-sequencing libraries were generated using the Illumina TruSeq Stranded Total RNA kit (20020597, Illumina, Inc., San Diego, Calif.) according to the manufacturer's protocol. 75 base-pair paired-end sequencing was performed using a NextSeq 500 (IIlumina, San Diego, Calif.) at the Texas A&M Institute for Genome Sciences and Society Genomics core. Raw sequencing reads were processed using CASAVA. The resulting FASTQ sequences were examined using FASTQC.
Angelman syndrome induced pluripotent stem cells derived neurons Angelman syndrome iPS cells (AG1-0 iPSCs) (ECN001, Kerafast, Boston, Mass.) were co-cultured on irradiated murine embryonic fibroblasts in human embryonic stem cell medium [DMEM/F12 (11330-057, Gibco Biosciences, Dublin, Ireland), 20% Knockout Serum Replacement (10828-028, Thermo Fisher Scientific), 1× Non-essential amino acids, 2 mM L-glutamine, […] 2-Mercaptoethanol, and 4 μg/mL basic Fibroblast Growth Factor]. […]
(§2) To determine whether ASO-4.4.PS.L and ASO-6.1.PO-1.O affect the levels of RNA transcripts encoded by the PWS polycistronic transcript, RNA-sequencing was performed on AS iPS cells treated with each ASO and the steady state RNA levels of SNURF, SNRPN, the SNORD116 host-gene transcript (SNHG116), the SNORD116 snoRNAs, IPW, the SNORD115 host-gene transcript (SNHG115), the SNORD115 snoRNAs, and UBE3A-AS were quantified. UBE3A steady state RNA levels were also measured. […]
Normalized FPKM (fragments per […] per million) values of the RefSeq gene annotation will be estimated using Cuffnorm with the default settings and the following option: −u. The FPKM values of each gene annotation was determined for each sample from the output file and used for descriptive and inferential statistics.

The test system of series [1] is SNORD116 host-gene transcript (SNHG116). The series is described as follows: RNA-sequencing of Angelman syndrome iPSC neurons: SNHG116. The note with it: 30 μM; six days post-treatment; RNA-seq. The series is classed as cell-based, human. How it is done: as §1, with “FASTQC. […]” for “FASTQC.”
as §2

For “A^L*G^L*A^L*a*t*g*g*c*a*c*a*t*c*t*5mC^L*T^L*T^L*G^L (NNNATGGCACATCTNNNN; LNA gapmer, PS, 5-methylcytosine, chemistry not fully specified) [ASO-4.4.PS.L]”, the “reduction of IPW levels” value with IPW (effect not significant) was found to be 1.5 fold. In addition, in the series with IPW, the “Difference, IPW RNA level relative to vehicle” value was −0.49. Further, the “Difference, SNHG116 RNA level relative to vehicle” value in series [1] was −0.24.

As to “C^O*U^O*G^O*G^O-t*g*t*c*a*a*c*a*a*g-C^O*C^O*A^O*A^o [ASO-6.1.PO-1.O]”, the “Difference, IPW RNA level relative to vehicle” value in the series on IPW was 0.18. Besides, the “Difference, SNHG116 RNA level relative to vehicle” value in series [1] is given as −0.07.
